Laboratory results from PubChem BioAssay AID256 (DTP/NCI, 2004).
Values joined by “and” are separate entries in the source; they are usually repeats but may differ in a detail not shown here. Identical values can stand only once. Inconclusive results and toxic doses are left out. Rule for the calls: active = survival T/C of 150% or more; inactive = T/C below 125% in these data.

Tested on: CD2F1 mice, L1210 leukemia ip, survival T/C
Assay: NCI In Vivo Anticancer Drug Screen. Data for tumor model L1210 Leukemia (intraperitoneal) in CD2F1 (CDF1) mice
Conditions: higher = longer survival
How it was run: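 Tumor-bearing mice (transplanted tumor) were split into treated and vehicle control groups, and the measured endpoint of each treated group was divided by that of its vehicle controls.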

[1] = endpoint: mean survival time, dose: 12.5 mg/kg/injection, schedule: Q01DX009 (ip), vehicle: water
[2] = endpoint: mean survival time, dose: 25.0 mg/kg/injection, schedule: Q01DX009 (ip), vehicle: water
[3] = endpoint: mean survival time, dose: 50.0 mg/kg/injection, schedule: Q01DX009 (ip), vehicle: water
[4] = endpoint: mean survival time, dose: 100.0 mg/kg/injection, schedule: Q01DX009 (ip), vehicle: water
[5] = endpoint: mean survival time, dose: 50.0 mg/kg/injection, schedule: Q01DX009 (ip), vehicle: saline with Tween-80
[6] = endpoint: mean survival time, dose: 100.0 mg/kg/injection, schedule: Q01DX009 (ip), vehicle: saline with Tween-80
[7] = endpoint: mean survival time, dose: 100.0 mg/kg/injection, schedule: Q04DX003 (ip), vehicle: saline with Tween-80
[8] = endpoint: mean survival time, dose: 200.0 mg/kg/injection, schedule: Q04DX003 (ip), vehicle: saline with Tween-80

Measured: T/C

CCSC(C)C
inactive: endpoint: mean survival time, dose: 100.0 mg/kg/injection, schedule: Q01DX009 (ip), vehicle: saline 101 % of control | endpoint: mean survival time, dose: 200.0 mg/kg/injection, schedule: Q01DX009 (ip), vehicle: saline 96 % of control | endpoint: mean survival time, dose: 400.0 mg/kg/injection, schedule: Q01DX009 (ip), vehicle: saline 98 % of control

O=C(CCc1ccc(O)cc1)c1c(O)cc(O)cc1OC1OC(CO)C(O)C(O)C1O (stereo not drawn)
inactive: endpoint: mean survival time, dose: 100.0 mg/kg/injection, schedule: Q01DX001 (ip), vehicle: saline 102 % of control | endpoint: mean survival time, dose: 200.0 mg/kg/injection, schedule: Q01DX001 (ip), vehicle: saline 98 % of control | endpoint: mean survival time, dose: 400.0 mg/kg/injection, schedule: Q01DX001 (ip), vehicle: saline 104 % of control

CCCCCCCCCCCCSS(=O)(=O)c1ccc(C)cc1
inactive: endpoint: mean survival time, dose: 100.0 mg/kg/injection, schedule: Q04DX003 (ip), vehicle: other 95 % of control | endpoint: mean survival time, dose: 200.0 mg/kg/injection, schedule: Q04DX003 (ip), vehicle: other 95 % of control | endpoint: mean survival time, dose: 400.0 mg/kg/injection, schedule: Q04DX003 (ip), vehicle: other 95 % of control

Nc1ncnc2c1ncn2CCNC(=S)Nc1ccccc1
inactive: endpoint: mean survival time, dose: 6.25 mg/kg/injection, schedule: Q01DX005 (ip), vehicle: other 88 % of control | endpoint: mean survival time, dose: 12.5 mg/kg/injection, schedule: Q01DX005 (ip), vehicle: other 92 % of control | endpoint: mean survival time, dose: 25.0 mg/kg/injection, schedule: Q01DX005 (ip), vehicle: other 88 % of control | endpoint: mean survival time, dose: 50.0 mg/kg/injection, schedule: Q01DX005 (ip), vehicle: other 92 % of control | endpoint: mean survival time, dose: 100.0 mg/kg/injection, schedule: Q01DX005 (ip), vehicle: other 92 % of control

C1CNCCNCCNCCN1
inactive: [1] 100 % of control | [2] 100 % of control | [3] 96 % of control | [4] 94 % of control

Cc1nnnn1C12CC3CC(CC(C3)C1)C2
inactive: endpoint: mean survival time, dose: 9.4 mg/kg/injection, schedule: Q01DX009 (ip), vehicle: saline with Tween-80 94 % of control

Cc1ccc(NC(=O)CCl)cc1Cl
inactive: [5] 95 % of control | [6] 90 % of control | [7] 98 % of control | [8] 89 % of control

COC(=O)NC1C(C)OC(OC2C/C=C(/C)C3C=CC4C(OC5CC(OC6CCC(OC7CC(O)C(OC8CCC(O)C(C)O8)C(C)O7)C(C)O6)C(OC(C)=O)C(C)O5)C(C)CC(C)C4C3(C)/C(O)=C3/C(=O)OC4(CC(C=O)=CC(O)C4/C=C\2C)C3=O)CC1(C)[N+](=O)[O-] (stereo not drawn)
inactive: endpoint: median survival time, dose: 1.25 mg/kg/injection, schedule: Q01DX009 (ip), vehicle: water 106 % of control | endpoint: median survival time, dose: 2.5 mg/kg/injection, schedule: Q01DX009 (ip), vehicle: water 106 % of control | endpoint: median survival time, dose: 5.0 mg/kg/injection, schedule: Q01DX009 (ip), vehicle: water 113 % of control | endpoint: median survival time, dose: 10.0 mg/kg/injection, schedule: Q01DX009 (ip), vehicle: water 121 % of control

O=c1c2ccccc2sc2c1ccc1c2ccc2c(=O)c3ccccc3sc21
inactive: endpoint: mean survival time, dose: 50.0 mg/kg/injection, schedule: Q01DX009 (ip), vehicle: Klucel (hydroxypropylcellulose) (HPC) 104 % of control | endpoint: mean survival time, dose: 100.0 mg/kg/injection, schedule: Q01DX009 (ip), vehicle: Klucel (hydroxypropylcellulose) (HPC) 98 % of control | endpoint: mean survival time, dose: 200.0 mg/kg/injection, schedule: Q01DX009 (ip), vehicle: Klucel (hydroxypropylcellulose) (HPC) 98 % of control

COC(=O)/C(C#N)=C(\C)CC(C)C
inactive: endpoint: mean survival time, dose: 75.0 mg/kg/injection, schedule: Q01DX001 (ip), vehicle: saline 100 % of control | endpoint: mean survival time, dose: 150.0 mg/kg/injection, schedule: Q01DX001 (ip), vehicle: saline 94 % of control

CN(C)c1ccc(Cc2ccc(N(C)C)cc2)cc1
inactive: [7] 96 % of control | [8] 100 % of control | endpoint: mean survival time, dose: 400.0 mg/kg/injection, schedule: Q04DX003 (ip), vehicle: saline with Tween-80 93 % of control

C=CS(C=C)=NS(=O)(=O)c1ccc(C)cc1
inactive: endpoint: mean survival time, dose: 1.56 mg/kg/injection, schedule: Q01DX009 (ip), vehicle: Klucel (hydroxypropylcellulose) (HPC) 97 % of control and 107 % of control | endpoint: mean survival time, dose: 3.12 mg/kg/injection, schedule: Q01DX009 (ip), vehicle: Klucel (hydroxypropylcellulose) (HPC) 100 % of control and 105 % of control | endpoint: mean survival time, dose: 6.25 mg/kg/injection, schedule: Q01DX009 (ip), vehicle: Klucel (hydroxypropylcellulose) (HPC) 95 % of control and 103 % of control | endpoint: mean survival time, dose: 12.5 mg/kg/injection, schedule: Q01DX009 (ip), vehicle: Klucel (hydroxypropylcellulose) (HPC) 100 % of control and 107 % of control | endpoint: mean survival time, dose: 25.0 mg/kg/injection, schedule: Q01DX009 (ip), vehicle: Klucel (hydroxypropylcellulose) (HPC) 97 % of control and 105 % of control

O=[N+]([O-])c1ccc(S(=O)(=O)c2ccc([N+](=O)[O-])cc2)cc1
inactive: [5] 93 % of control | [6] 93 % of control | endpoint: mean survival time, dose: 200.0 mg/kg/injection, schedule: Q01DX009 (ip), vehicle: saline with Tween-80 93 % of control

COC(=O)C(CS)NC(=O)CCNC(C)=O (stereo not drawn)
inactive: [1] 97 % of control | [2] 100 % of control | [3] 97 % of control | [4] 104 % of control | endpoint: mean survival time, dose: 200.0 mg/kg/injection, schedule: Q01DX009 (ip), vehicle: water 100 % of control
